Measurements published in patent US4954523A, “Benzophenone oxime ether compounds, pharmaceutical compositions and treatment methods” (Eisai Co., Ltd., priority 1986, dated 1990).
Where two headings read alike, the source gives them in different places.

What was measured:
[1] = system: platelets (aggregation induced with collagen, arachidonic acid, ADP or PAF); assay: Effect in inhibiting aggulutination of platelets (in vitro), human platelet-rich plasma; assay type: cell-based
Protocol: 1. Effect in inhibiting aggulutination of platelets […]
The blood was collected from a human cubital vein in such a manner as to contain a 3.8% solution of sodium citrate in an amount 1.10 time by volume as much as the blood. Then platelet-rich plasma (PRP) was prepared therefrom according to the method reported by Packham et al. (ct. Packham, M. A., et al, J. Exp. Med., 126, 171-189 (1967)). To 0.2 ml of the obtained PRP, 25 μl portions of solutions of each compound of the present invention (A to E) at various concentrations were added and incubated at 37° C. for three minutes. Then the aggultination of platelets was induced with arachidonic acid, collagen, ADP and PAF. The aggulutination of platelets was evaluated according to the method reported by Mustard et al. (cf. Mustard, J. F., et al., J. Lab. Clin. Med., 64, 548-559 […] with the use of an aggregometer available from Schenko or Niko Bioscience Co. In other words, this test is carried out to examine the effect of platelet aggregation (in vitro).
(§1) The tests were conducted in the same way as shown before from the diphenylethylene derivative. Results for inhibition of aggulutination are shown in Table 3 for the in-vitro test and in Table for the ex-vivo test. The acute toxicity test provided the same results as obtained with the diphenylethylene derivative.

[2] = system: platelets (aggregation induced by collagen or arachidonic acid); assay: Effect of inhibiting aggultination of platelets (ex vivo), oral administration to guinea pigs; assay type: in vivo; conditions: Cavia porcellus, Platelet, 2 h
Protocol: 2. Effect of inhibiting aggultination of platelets (ex vivo)
The compound A to E, which were typical examples of the compound of the present invention, were orally administered to guinea pigs. After two hours, the blood of each animal was collected from the abdominal aorta thereof under etherization. Then the effect of each compound on the aggultination of platelets induced by collagen (3 μg/ml) and arachidonic acid (50 μM) was examined. […] In other words, this test is conducted to examine the effect of platelet aggregation (ex vivo).
as §1

[3] = ADP-induced, human PRP, incubated at 37° C. for three minutes, in vitro, read-out: Effect of inhibiting ADP aggultination IC50
[4] = PAF-induced, human PRP, incubated at 37° C. for three minutes, in vitro, read-out: Effect of inhibiting PAF aggultination IC50
[5] = arachidonic acid-induced, human PRP, incubated at 37° C. for three minutes, in vitro, read-out: Effect of inhibiting arachidonic acid aggultination IC50
[6] = collagen-induced, human PRP, incubated at 37° C. for three minutes, in vitro, read-out: Effect of inhibiting collagen aggultination IC50
[7] = guinea pigs, oral, two hours after administration, arachidonic acid (50 μM), ex vivo, read-out: Effect of inhibiting arachidonic acid aggultination ED50
[8] = guinea pigs, oral, two hours after administration, collagen (3 μg/ml), ex vivo, read-out: Effect of inhibiting collagen aggultination ED50

Structure (SMILES) | IC50 [1, 3] | IC50 [1, 4] | IC50 [1, 5] | IC50 [1, 6] | ED50 [2, 7] | ED50 [2, 8] | IC50 ([1]; Homo sapiens, read-out: Effect of inhibiting ADP aggultination IC50) | IC50 ([1]; Homo sapiens, read-out: Effect of inhibiting PAF aggultination IC50) | IC50 ([1]; Homo sapiens, read-out: Effect of inhibiting arachidonic acid aggultination IC50) | IC50 ([1]; Homo sapiens, read-out: Effect of inhibiting collagen aggultination IC50) | ED50 ([2]; po, read-out: Effect of inhibiting arachidonic acid aggultination ED50) | ED50 ([2]; po, read-out: Effect of inhibiting collagen aggultination ED50)
COc1ccc(C(=CC(=O)NCc2ccccc2)c2ccc(OC)cc2)cc1 [Cpd. A, N-Benzyl-3,3-bis(4-methoxyphenyl)acrylamide] | 5000 nM | 15000 nM | 5000 nM | 20000 nM | 100 mg/kg | 100 mg/kg |  |  |  |  |  | 
COc1ccc(C(=CCNS(=O)(=O)c2ccccc2)c2ccc(OC)cc2)cc1 [Cpd. B, N-[3,3-Bis(4-methoxyphenyl)allyl]benzensulfonamide] | 2000 nM | 2500 nM | 900 nM | 1400 nM | 20 mg/kg | 20 mg/kg |  |  |  |  |  | 
CCOC(=O)CCC(C#N)=C(c1ccc(OC)cc1)c1ccc(OC)cc1 [Cpd. C, Ethyl 4-cyano-5,5-bis(4-methoxyphenyl)-4-pentenoate] | 200 nM | 1800 nM | 70 nM | 200 nM | 0.03 mg/kg | 0.05 mg/kg |  |  |  |  |  | 
COc1ccc(C(=C(C#N)CCC(=O)O)c2ccc(OC)cc2)cc1 [Cpd. D, 4-Cyano-5,5-bis(4-methoxyphenyl)4-pentenoic acid] |  |  |  |  |  |  | 1900 nM | 2800 nM | 800 nM | 1700 nM | 0.03 mg/kg | 0.05 mg/kg
COC(=O)CCCC(C#N)=C(c1ccc(OC)cc1)c1ccc(OC)cc1 [Cpd. E, Methyl 5-cyano-6,6-bis(4-methoxyphenyl)-5-hexenoate] | 200 nM | 1300 nM | 60 nM | 150 nM | 0.3 mg/kg | 1 mg/kg |  |  |  |  |  | 
CCOC(=O)CC(=O)CON=C(c1ccc(OC)cc1)c1ccc(OC)cc1 [Cpd. L, 4,4'-dimethoxybenzophenone-O-(3-ethoxycarbonyl-2-oxopropyl)oxime] | 800 nM | 1200 nM | 100 nM | 500 nM | 30 mg/kg | 30 mg/kg |  |  |  |  |  | 
CCOC(=O)CC(CON=C(c1ccc(OC)cc1)c1ccc(OC)cc1)=NOC [Cpd. M, 4,4'-Dimethoxybenzophenone O-(3-ethoxycarbonyl-2-methoxyiminopropyl)oxime] | 13200 nM | 20000 nM | 12500 nM | 14000 nM | 55 mg/kg | 55 mg/kg |  |  |  |  |  | 
CON=C(CON=C(c1ccc(OC)cc1)c1ccc(OC)cc1)CC(=O)O [Cpd. N, 4,4'-Dimethoxybenzophenone O-(3-carboxy-2-methoxyiminopropyl)oxime] | 5000 nM | 4100 nM | 700 nM | 2800 nM | 0.3 mg/kg | 1.3 mg/kg |  |  |  |  |  | 
CCOC(=O)CCC(C#N)ON=C(c1ccc(OC)cc1)c1ccc(OC)cc1 (centres unmarked) [Cpd. O, 4,4'Dimethoxybenzophenone O-(1-cyano-3-ethoxycarbonylpropyl)oxime] | 20000 nM | 14500 nM | 7000 nM | 14000 nM | 0.3 mg/kg | 1 mg/kg |  |  |  |  |  | 
COc1ccc(C(=NOC(C#N)CCC(=O)O)c2ccc(OC)cc2)cc1 (centres unmarked) [Cpd. P, 4,4'-Dimethoxybenzophenone O-(1-cyano-3-carboxypropyl)oxime] | 2700 nM | 1500 nM | 400 nM | 1100 nM | 0.3 mg/kg | 1.1 mg/kg |  |  |  |  |  | 
COC(=O)CCCC(C#N)ON=C(c1ccc(OC)cc1)c1ccc(OC)cc1 (centres unmarked) [Cpd. Q, 4,4'-Dimethoxybenzophenone O-(1-cyano-4-methoxycarbonylbutyl)oxime] | 35000 nM | 37000 nM | 12000 nM | 36000 nM | 50 mg/kg | 88 mg/kg |  |  |  |  |  | 
COc1ccc(C(=NOC(C#N)CCCC(=O)O)c2ccc(OC)cc2)cc1 (centres unmarked) [Cpd. R, 4,4'-Dimethoxybenzophenone O-(1-cyano-4-carboxybutyl)oxime] | 85000 nM | 79000 nM | 50000 nM | 80000 nM | ≤ 100 mg/kg | ≤ 100 mg/kg |  |  |  |  |  | 
Clc1ccccc1CN1CCc2sccc2C1 [Ticlopidine, reference compound] |  |  |  |  | 150 mg/kg | ≤ 200 mg/kg |  |  |  |  |  | 
